{
  "source": "patent US12397059B2",
  "about": "“Compounds and methods for the treatment and prevention of fibrotic disease states and cancer” (Purdue Research Foundation, priority 2019, dated 2025)",
  "key": {"[1]": {"tested_on": "M2-induced human monocyte-derived macrophages", "assay": "Reprogramming of M2-induced human monocyte-derived macrophages with FA-glucosamine competition", "type": "cell-based", "details": "100 nM, 2 hours then 46 hours without drug", "protocol": "Changes in both sets of cytokines were inhibited by blockade of unoccupied folate receptors with excess FA-glucosamine (2+46 h, competition)."}, "healthy mice": {"tested_on": "healthy mice", "assay": "Plasma cytokine levels in healthy mice after tail vein injection", "type": "in vivo", "protocol": "(FIGS. 20A-C) Measurement of plasma IL-6 (FIG. 20A), IFNα (FIG. 20B) and TNFα (FIG. 20C) (n=3). (FIGS. 20D-F). The effect of drug concentration on plasma levels of IL-6 (FIG. 20D), IFNα (FIG. 20E), and TNFα (FIG. 20F) was determined at 1.5 h, 1 h, or 1 h after treatment, respectively (n=2) (FIG. 20G)."}, "[2]": {"assay": "Stability during incubation in culture media", "type": "physicochemical", "details": "37° C. in the culture media, 48 hours", "protocol": "Indeed, Compound 1B retained the original structure after 48 hours incubation."}, "[3]": {"tested_on": "BM-induced experimental pulmonary fibrosis in mice", "assay": "BM-induced pulmonary fibrosis: markers in bronchoalveolar lavage cells/fluid (qPCR, ELISA)", "type": "in vivo", "protocol": "Fresh water and folate-deficient diet were freely available.\nBronchoalveolar lavage fluid (BALF) was then analyzed to determine how the targeted TLR7 agonist works. BALF samples were centrifuged at 1500 rpm for 5 min at 4° C. and the supernatant was aliquoted and stored at −80° C. for cytokine/chemokine analyses. Cell pellets were resuspended and cultured in pre-warmed RPMI 1640 medium for 2 hours and then washed 3× with pre-warmed PBS prior to harvesting for qPCR assay. The right lung was then tied with a nylon string and used for subsequent analysis of hydroxyproline content. The left lung was inflated with 1 ml PBS using the inserted syringe and transferred to 10% formalin solution for subsequent histological analyses.\nCCL18 and IL-1β were quantified in induced THP-1 cell supernatants using a human DuoSet ELISA Development System (R&D Systems Europe, Abingdon, UK; #DY394-05) and an IL-1 beta Human ELISA Kit (Thermo Fisher Scientific, Waltham, MA; #BMS224-2) as described by manufactures. BALF samples were analyzed for mouse IFN-γ using ELISA MAX™ Deluxe (Biolegend, San Diego, CA; #430804)."}, "[4]": {"tested_on": "M2-induced THP-1 macrophages", "assay": "Secreted CCL18 and IL-1β in THP-1 supernatants by ELISA", "type": "cell-based, human", "protocol": "FIGS. 6A-6D show graphical data representative of various marker levels measured from M2-induced THP-1 macrophages treated with different concentrations of drugs for 48 hours (FIGS. 6A and 6B) or for 2 hours, then displaced with fresh medium and cultured for the remaining 46 hours (FIGS. 6C and 6D). In both cases, cell supernatants were collected and secreted CCL18 protein and IL-1β was detected by ELISA.\nFurther, to ensure that the above mRNA analyses accurately reflected the levels of profibrotic cytokines produced by IL-4, IL-6 plus IL-13 stimulated THP-1 cells, the concentrations of CCL18 and IL-1β polypeptides in the THP-1 supernatants were quantitated by ELISA assay.\nCCL18 and IL-1β were quantified in induced THP-1 cell supernatants using a human DuoSet ELISA Development System (R&D Systems Europe, Abingdon, UK; #DY394-05) and an IL-1 beta Human ELISA Kit (Thermo Fisher Scientific, Waltham, MA; #BMS224-2) as described by manufactures."}, "[5]": {"tested_on": "THP-1 cells polarized to M2-like macrophages", "assay": "Reprogramming of M2-like THP-1 macrophages, marker gene analysis by qPCR", "type": "cell-based, human", "protocol": "THP-1 cells were seeded into 96-well plates at a density of 60,000 cells/well. Cells were differentiated into unpolarized macrophages by 48 hours incubation with 200 nM PMA followed by 24 hours incubation in fresh RPMI medium. […] Cultures were maintained at 37° C. in a humidified 5% CO2 incubator.\nTotal RNA was isolated from 1×10^5 —2×10^5 macrophages using a Quick-RNA™ MicroPrep kit (Zymo Research, Irvine, CA) according to the manufacturer-recommended protocol. […] IL-6, CXCL10, IFNα, IFN-γ and CD86 were used as markers for an M1 phenotype, while CCL18, CD206, CD163 and Arg1 were employed as markers for the M2 phenotype. IL-1β, PDGFβ, MMP9 and TIMP 3 were measured as indicators of a profibrotic phenotype. IRAK-4 was used as an indicator of TLR7 stimulation. To control for specificity of the amplification products, a melting curve analysis was performed. […] Each sample was analyzed independently in triplicate for each marker.\nPrimarily, human monocytic (THP-1) cells were induced to the M2-like phenotype using the methods and materials previously described. In particular, THP-1 cells were seeded into 96-well plates at a density of 60,000 cells/well. Cells were differentiated into unpolarized macrophages by 48 h incubation with 200 nM PMA followed by 24 hours incubation in fresh RPMI medium. The resulting macrophages were polarized to an M2-like phenotype by incubation with 20 ng/ml IL-4, 20 ng/ml IL-13, and 5 ng/mL IL-6 for 48 h. Cultures were maintained at 37° C. in a humidified 5% CO2 incubator.\nIn addition to the nonconjugated TLR7 agonist, conjugated compounds of the present disclosure were likewise evaluated. […] The cells were subsequently harvested for gene analysis by qPCR and the relative expression of CCL18 (FIG. 14A), CD206 (FIG. 14B), and IL-1β (FIG. 14C) analyzed."}, "[6]": {"details": "BALF cells day 21, i.v. every other day from day 10"}, "[7]": {"details": "incubated continuously for 48 hours, ELISA"}, "[8]": {"details": "2 hours with drug, then drug-free medium"}, "[9]": {"details": "incubated 2 hours, harvested at once or after a further 46 hours"}},
  "note": "Entries after “also recorded” stand apart in the source; their conditions may differ.",
  "data": [
    {"smiles": "CCCCc1nc2c(N)nc3ccccc3c2n1CC(C)(C)OC(=O)OCCSSCC(NC(=O)CCC(NC(=O)c1ccc(NCc2cnc3nc(N)[nH]c(=O)c3n2)cc1)C(=O)O)C(=O)O", "note": "(centres unmarked) [Compound 1B]", "values": [
      {"measurement": "downregulation of biomarkers in presence of excess FA-glucosamine (competitor)", "setting": "[1]", "value": "blocked"},
      {"measurement": "systemic cytokine release (plasma IL-6, IFNα, TNFα)", "setting": "healthy mice; 10 nmol tail vein", "value": "does not"},
      {"measurement": "inflammatory cytokine release, dose comparison", "setting": "healthy mice; effect of drug concentration", "value": "stimulates less inflammatory cytokine release than half the dose of Compound 1A"},
      {"measurement": "stability during incubation", "setting": "[2]", "value": "remained stable"},
      {"measurement": "CD86 transcripts (antifibrotic marker, qPCR)", "setting": "[3]; BALF cells day 21", "value": "upregulated; also recorded: elevated"},
      {"measurement": "IRAK-4", "setting": "[3]; BALF cells day 21", "value": "upregulated; also recorded: upregulation"},
      {"measurement": "Arg1 (profibrotic marker, qPCR)", "setting": "[3]; [6]", "value": "downregulated; also recorded: suppressed"},
      {"measurement": "MMP9 (profibrotic marker, qPCR)", "setting": "[3]; [6]", "value": "downregulated; also recorded: suppressed"},
      {"measurement": "TIMP 3 (profibrotic marker, qPCR)", "setting": "[3]; [6]", "value": "downregulated; also recorded: suppressed"},
      {"measurement": "IFN-γ concentration (ELISA of lavage fluid)", "setting": "[3]; day 21", "value": "upregulated; also recorded: elevated"},
      {"measurement": "total number of BALF cells", "setting": "[3]; different doses", "value": "decreased in a dose-dependent manner"},
      {"measurement": "reduction of secreted CCL18 and IL-1β, comparison of the two agonists", "setting": "[4]; drug exposure limited to 2 hours, then 46 hours fresh medium", "value": "superior"},
      {"measurement": "secreted CCL18 protein", "setting": "[4]; [7]", "value": "reductions"},
      {"measurement": "secreted IL-1β", "setting": "[4]; [7]", "value": "reductions"},
      {"measurement": "TNFα induction", "setting": "[5]; [8]", "value": "dramatically improved"},
      {"measurement": "potency relative to Compound 1A", "setting": "[5]; [8]", "value": "superior potency relative to Compound 1A"},
      {"measurement": "marker changes (FIGS. 3A-3F) compared with nontargeted TLR7 agonist", "setting": "[5]; M2-induced THP-1, 48 hours incubation", "value": "same qualitative changes were observed, only the magnitude of the impact of Compound 1B was somewhat reduced"},
      {"measurement": "PDGFα", "setting": "[5]; data not shown", "value": "no significant difference"},
      {"measurement": "M1-like phenotype (CD86 mRNA, TNFα levels)", "setting": "[5]; [9]", "value": "upregulated"},
      {"measurement": "profibrotic/M2-type markers (CCL18, CD206, IL-1β, PDGFβ mRNA)", "setting": "[5]; [9]", "value": "downregulated profibrotic/M2-type markers of macrophages more than Compound 1A"}
    ]}
  ]
}
